The values that follow come from patent US9815846B2 (Merck Sharp & Dohme Corp., priority 2014, dated 2017).

This assay has as its target human TrkA receptor (Homo sapiens (Human), UniProt P04629). The assay is described as follows: DiscoverX PathHunter TrkA functional assay (NGF-stimulated U2OS cells). The class given is cell-based. The conditions noted are these: U2OS cells expressing human TrkA-PK, Shc1-EA and p75NTR; compound 1 h, then NGF at ~80% of maximal response for 3 h; luminescence.

Chain of human TrkA receptor (P04629 33-796): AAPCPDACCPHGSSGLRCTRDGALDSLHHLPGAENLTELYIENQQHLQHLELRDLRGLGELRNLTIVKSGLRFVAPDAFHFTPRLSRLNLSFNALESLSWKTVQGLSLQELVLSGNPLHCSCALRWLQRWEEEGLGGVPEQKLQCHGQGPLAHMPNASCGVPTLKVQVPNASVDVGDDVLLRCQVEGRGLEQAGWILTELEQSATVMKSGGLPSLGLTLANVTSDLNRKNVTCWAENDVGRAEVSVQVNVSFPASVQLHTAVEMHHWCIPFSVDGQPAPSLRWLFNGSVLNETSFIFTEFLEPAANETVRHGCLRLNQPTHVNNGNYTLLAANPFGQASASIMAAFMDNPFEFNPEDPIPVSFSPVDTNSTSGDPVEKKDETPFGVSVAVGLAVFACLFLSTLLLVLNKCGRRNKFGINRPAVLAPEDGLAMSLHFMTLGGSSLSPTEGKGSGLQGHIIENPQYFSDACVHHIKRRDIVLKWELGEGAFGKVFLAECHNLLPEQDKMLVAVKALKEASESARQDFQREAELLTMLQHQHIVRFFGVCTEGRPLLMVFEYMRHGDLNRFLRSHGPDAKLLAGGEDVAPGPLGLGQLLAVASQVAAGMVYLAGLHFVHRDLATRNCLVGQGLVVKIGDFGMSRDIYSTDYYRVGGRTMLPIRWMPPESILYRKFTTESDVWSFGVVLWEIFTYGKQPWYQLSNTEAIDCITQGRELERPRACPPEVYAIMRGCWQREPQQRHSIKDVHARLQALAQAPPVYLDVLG
Procedure: TrkA functional activity was measured using a DiscoverX PathHunter assay. In this assay, U2OS cells express the human TrkA receptor as a fusion with the weakly complementing fragment of B-galactosidase, which DiscoverX calls “Prolink (PK)”; additionally, Shcl is fused with a larger fragment, which is called “Enzyme Acceptor (EA)”. Activation of the TrkA receptor, upon NGF addition, results in the kinase domain being phosphorylated, resulting in subsequent recruitment of Shcl-EA protein. That recruitment results in an active B-galactosidase enzyme that is detected by addition of a chemiluminescent substrate. The human p75^NTR protein was also expressed as a co-receptor for NGF.
All reagents were purchased from DiscoverX, except for the receptor agonists (NGF, BDNF, NT3) which were purchased from Peprotech. Cells were expanded and frozen into cryovials, and stored in the vapor phase of liquid nitrogen, and thawed immediately before use. Thawed cells were added to a 384-well plate at 7500 cells/well, and allowed to incubate overnight. Compound at various concentrations was added the following morning and allowed to incubate on cells for 1 h. Then, NGF was added at a concentration sufficient to elicit ˜80% of a maximal response and allowed to incubate for 3 h at ambient temperature. DiscoverX PathHunter detection reagent was then added and the plate was further incubated for 1 h in the dark. The plate was then read via luminescence on the Perkin Elmer Envision.

In general, IC50 refers to the concentration at which inhibition is half-maximal. Low readings indicate inhibition by little substance, high ones a need for much substance. Consider `NC(=O)c1cnc(-c2cnc(-c3ccccc3)c(NC(=O)c3cc(-c4ncccn4)c(C(F)(F)F)cc3F)c2)nc1` [Example 169, 2-(5-(2-fluoro-5-(pyrimidin-2-yl)-4-(trifluoromethyl)benzamido)-6-phenylpyridin-3-yl)pyrimidine-5-carboxamide], for which half-maximal inhibition (IC50) was put at 0.59 nM.

On to `CC(=O)NCc1cnc(-c2cnc(-c3ccccc3)c(NC(=O)c3cc(-c4ncccn4)c(C(F)(F)F)cc3F)c2)nc1` [Example 170, N-(5-(5-(acetamidomethyl)pyrimidin-2-yl)-2-phenylpyridin-3-yl)-2-fluoro-5-(pyrimidin-2-yl)-4-(trifluoromethyl)benzamide], for which the IC50 was 16 nM.

With `Cn1ccc(-c2cc(C(=O)Nc3cc(-c4ccc(C(=O)O)cn4)cnc3-c3ccccc3)c(F)cc2C(F)(F)F)n1` [Example 171, 5′-(2-fluoro-5-(1-methyl-1H-pyrazol-3-yl)-4-(trifluoromethyl)benzamido)-6′-phenyl-[2,3′-bipyridine]-5-carboxylic acid], the IC50 turned out to be 10 nM.

As for `Cn1ccc(-c2cc(C(=O)Nc3cc(-c4ccc(C(C)(C)O)cn4)cnc3-c3ccccc3)c(F)cc2C(F)(F)F)n1` [Example 172, 2-fluoro-N-(5-(2-hydroxypropan-2-yl)-6′-phenyl-[2,3′-bipyridin]-5′-yl)-5-(1-methyl-1H-pyrazol-3-yl)-4-(trifluoromethyl)benzamide], half-maximal inhibition (IC50) was put at 0.26 nM.

The compound `NC(=O)c1ccnc(-c2cnc(-c3ccccc3)c(NC(=O)c3cc(-c4ncccn4)c(C(F)(F)F)cc3F)c2)n1` [Example 173, 2-(5-(2-fluoro-5-(pyrimidin-2-yl)-4-(trifluoromethyl)benzamido)-6-phenylpyridin-3-yl)pyrimidine-4-carboxamide] had an IC50 of 4.9 nM.

`CNC(=O)c1ccc(-c2cnc(-c3ccccc3)c(NC(=O)c3cc(-c4ncccn4)c(C(F)(F)F)cc3F)c2)nc1` [Example 174, 5′-(2-fluoro-5-(pyrimidin-2-yl)-4-(trifluoromethyl)benzamido)-N-methyl-6′-phenyl-[2,3′-bipyridine]-5-carboxamide] yielded an IC50 of 4.8 nM. The IC50 values of the last two compounds are within 1.5-fold of each other.

Take `NC(=O)c1ncc(-c2cnc(-c3ccccc3)c(NC(=O)c3cc(-c4ncccn4)c(C(F)(F)F)cc3F)c2)cn1` [Example 175, 5-(5-(2-fluoro-5-(pyrimidin-2-yl)-4-(trifluoromethyl)benzamido)-6-phenylpyridin-3-yl)pyrimidine-2-carboxamide]: 12.4 nM corresponded to half-maximal inhibition (IC50).

Regarding `O=C(Nc1cc(OCc2ccncc2)cnc1-c1ccccc1)c1cc(-c2ncccn2)c(C(F)(F)F)cc1F` [Example 176, 2-fluoro-N-(2-phenyl-5-(pyridin-4-ylmethoxy)pyridin-3-yl)-5-(pyrimidin-2-yl)-4-(trifluoromethyl)benzamide], the IC50 stood at 6.3 nM.

As for `NC(=O)N1CCN(c2cnc(-c3ccccc3)c(NC(=O)c3cc(-c4ncccn4)c(C(F)(F)F)cc3F)c2)CC1` [Example 177, 4-(5-(2-fluoro-5-(pyrimidin-2-yl)-4-(trifluoromethyl)benzamido)-6-phenylpyridin-3-yl)piperazine-1-carboxamide], half-maximal inhibition (IC50) was put at 18 nM.

As to `CC(N)c1ccc(-c2cnc(-c3ccccc3)c(NC(=O)c3cc(-c4ccn(C)n4)c(C(F)(F)F)cc3F)c2)nc1` (centres unmarked) [Example 178, N-(5-(1-aminoethyl)-6′-phenyl-[2,3′-bipyridin]-5′-yl)-2-fluoro-5-(1-methyl-1H-pyrazol-3-yl)-4-(trifluoromethyl)benzamide], the IC50 was 0.29 nM.

In the case of `Cn1ccc(-c2cc(C(=O)Nc3cnc(Cc4nnnn4C)nc3-c3ccccc3)c(F)cc2C(F)(F)F)n1` [Example 179, 2-Fluoro-5-(1-methyl-1H-pyrazol-3-yl)-N-(2-((1-methyl-1H-tetrazol-5-yl)methyl)-4-phenylpyrimidin-5-yl)-4-(trifluoromethyl)benzamide], the IC50 stood at 1 nM.
